Measured values from the NIST ThermoML archive (doi:10.1021/je700339f).
Numbers after ± are expanded uncertainties.

Details: Liquid

ClCCCl [1,2-dichloroethane]
mass density [kg/m3]
Details	288.15 K	298.15 K	308.15 K	318.15 K
100 kPa	1259.9 ± 0.6	1245.5 ± 0.6	1231 ± 0.6	1216.4 ± 0.5
500 kPa	1260.3 ± 0.6	1246.1 ± 0.6	1231.4 ± 0.6	1216.7 ± 0.6
1000 kPa	1260.8 ± 0.6	1246.4 ± 0.6	1232 ± 0.6	1217.4 ± 0.6
1500 kPa	1261.2 ± 0.7	1246.9 ± 0.6	1232.5 ± 0.6	1218 ± 0.6
2000 kPa	1261.6 ± 0.7	1247.4 ± 0.7	1233 ± 0.6	1218.5 ± 0.6
2500 kPa	1262.2 ± 0.7	1247.8 ± 0.7	1233.5 ± 0.7	1219.1 ± 0.6
3100 kPa	1262.7 ± 0.7	1248.5 ± 0.7	1234.2 ± 0.7	1219.8 ± 0.6
3600 kPa	1263.2 ± 0.8	1248.9 ± 0.7	1234.7 ± 0.7	1220.3 ± 0.7
4100 kPa	1263.6 ± 0.8	1249.4 ± 0.7	1235.2 ± 0.7	1220.9 ± 0.7
4600 kPa	1264 ± 0.8	1249.9 ± 0.8	1235.7 ± 0.7	1221.4 ± 0.7
5100 kPa	1264.5 ± 0.8	1250.4 ± 0.8	1236.2 ± 0.8	1222 ± 0.7
5600 kPa	1264.9 ± 0.8	1250.9 ± 0.8	1236.9 ± 0.8	1222.6 ± 0.7
6100 kPa	1265.4 ± 0.9	1251.4 ± 0.8	1237.3 ± 0.8	1223.1 ± 0.8
6600 kPa	1265.8 ± 0.9	1251.9 ± 0.9	1237.9 ± 0.8	1223.6 ± 0.8
7100 kPa	1266.2 ± 0.9	1252.3 ± 0.9	1238.4 ± 0.8	1224.1 ± 0.8
7600 kPa	1266.7 ± 0.9	1252.9 ± 0.9	1238.6 ± 0.9	1224.7 ± 0.8
8100 kPa	1267.2 ± 1	1253.2 ± 0.9	1239.3 ± 0.9	1225.2 ± 0.8
8600 kPa	1267.6 ± 1	1253.8 ± 0.9	1239.8 ± 0.9	1225.8 ± 0.9
9200 kPa	1268.2 ± 1	1254.4 ± 1	1240.4 ± 0.9	1226.3 ± 0.9
9600 kPa	1268.6 ± 1	1254.9 ± 1	1240.9 ± 0.9	1226.9 ± 0.9
10000 kPa	–	1255.1 ± 1	–	–
10100 kPa	1269 ± 1	–	1241.3 ± 1	1227.5 ± 0.9
10600 kPa	1269.4 ± 1.1	1255.9 ± 1	1241.8 ± 1	1227.9 ± 0.9
11100 kPa	1269.8 ± 1.1	1256.4 ± 1	1242.3 ± 1	1228.4 ± 0.9
11600 kPa	1270.3 ± 1.1	1256.7 ± 1.1	1242.8 ± 1	1229 ± 1
12100 kPa	1270.7 ± 1.1	1257.3 ± 1.1	1243.4 ± 1	1229.5 ± 1
12500 kPa	–	–	–	1230 ± 1
12600 kPa	1271 ± 1.2	1257.6 ± 1.1	1243.8 ± 1.1	–
13100 kPa	1271.5 ± 1.2	1258 ± 1.1	1244.2 ± 1.1	1230.6 ± 1
13600 kPa	1271.9 ± 1.2	1258.5 ± 1.1	1244.7 ± 1.1	1231 ± 1
14100 kPa	1272.4 ± 1.2	–	–	–
14200 kPa	–	1259 ± 1.2	1245.3 ± 1.1	1231.6 ± 1.1
14700 kPa	1272.9 ± 1.2	1259.4 ± 1.2	1245.8 ± 1.1	1232.1 ± 1.1
15200 kPa	1273.3 ± 1.3	1260 ± 1.2	1246.4 ± 1.2	1232.7 ± 1.1
15600 kPa	–	–	–	1233.1 ± 1.1
15700 kPa	1273.7 ± 1.3	1260.5 ± 1.2	1246.8 ± 1.2	–
16200 kPa	–	1260.8 ± 1.3	1247.2 ± 1.2	–
16300 kPa	1274.2 ± 1.3	–	–	1233.8 ± 1.2
16700 kPa	–	1261.4 ± 1.3	1247.7 ± 1.2	–
16800 kPa	1274.6 ± 1.3	–	–	1234.2 ± 1.2
17200 kPa	1275 ± 1.4	–	1248.2 ± 1.2	–
17300 kPa	–	1261.9 ± 1.3	–	1234.8 ± 1.2
17700 kPa	1275.4 ± 1.4	–	–	–
17800 kPa	–	1262.4 ± 1.3	1248.7 ± 1.3	1235.2 ± 1.2
18200 kPa	1275.8 ± 1.4	–	–	1235.5 ± 1.2
18300 kPa	–	1262.8 ± 1.4	1249.2 ± 1.3	–
18600 kPa	1276.2 ± 1.4	–	–	–
18800 kPa	–	1263.3 ± 1.4	1249.6 ± 1.3	–
18900 kPa	–	–	–	1236.2 ± 1.3
19000 kPa	1276.5 ± 1.4	–	–	–
19200 kPa	–	1263.7 ± 1.4	1250.1 ± 1.3	1236.5 ± 1.3
19400 kPa	1276.9 ± 1.5	–	–	–
19700 kPa	–	1264.1 ± 1.4	1250.6 ± 1.4	1237.1 ± 1.3
20000 kPa	1277.3 ± 1.5	–	–	–
20200 kPa	–	1264.5 ± 1.4	1251 ± 1.4	1237.5 ± 1.3
